The text below walks through data of patent US6930227B1 (Mitsui Chemicals, Inc., priority 1999, dated 2005).

Data set [1] deals with T1, N-methyl transferase (Camellia sinensis, UniProt Q9FZN8).
T1 sequence (Q9FZN8 1-369): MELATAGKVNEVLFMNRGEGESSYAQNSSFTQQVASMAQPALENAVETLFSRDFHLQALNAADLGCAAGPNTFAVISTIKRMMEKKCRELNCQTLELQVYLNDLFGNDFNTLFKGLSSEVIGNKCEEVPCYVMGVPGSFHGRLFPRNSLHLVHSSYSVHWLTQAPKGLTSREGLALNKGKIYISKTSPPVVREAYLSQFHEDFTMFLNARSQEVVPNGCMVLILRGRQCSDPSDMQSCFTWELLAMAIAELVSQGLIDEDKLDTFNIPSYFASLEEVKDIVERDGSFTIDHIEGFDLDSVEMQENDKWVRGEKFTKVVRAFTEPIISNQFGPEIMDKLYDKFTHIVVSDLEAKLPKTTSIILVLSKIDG
The class given is biochemical. As for the experimental part:
Inhibitor: SAH (S-adenosyl homocysteine)
The reaction solution for N-methyl transferase measurement was prepared as follows. […] Reaction was carried out at 27° C. for 10 minutes, the obtained ^14C-caffeine was extracted by adding 1 ml chloroform thereto and the radiation activity of a chloroform layer was measured.

Data set [2] deals with T2, N-methyl transferase (Camellia sinensis, UniProt Q9FZN8).
T2 construct: made in house; host or cells: Escherichia coli BL21 (DE3), vector pET23d
T2 sequence (Q9FZN8 14-369 limits assumed): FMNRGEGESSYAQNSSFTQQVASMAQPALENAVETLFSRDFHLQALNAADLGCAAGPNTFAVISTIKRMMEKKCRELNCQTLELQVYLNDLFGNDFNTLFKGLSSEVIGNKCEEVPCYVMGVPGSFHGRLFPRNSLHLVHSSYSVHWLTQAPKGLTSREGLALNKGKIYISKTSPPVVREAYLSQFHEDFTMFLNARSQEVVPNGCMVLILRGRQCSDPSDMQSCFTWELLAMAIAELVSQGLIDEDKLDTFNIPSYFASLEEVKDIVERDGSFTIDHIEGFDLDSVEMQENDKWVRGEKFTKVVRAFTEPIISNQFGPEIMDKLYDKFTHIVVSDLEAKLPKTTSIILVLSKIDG
Briefly: N-methyl transferase measurement with enzyme solution from Escherichia coli expressing the gene (14C-caffeine extraction). The class given is biochemical. To be noted: for production of methylated product from the added substrate: substrate added instead of paraxanthine, same reaction solution. As for the experimental part:
Separately, a fragment obtained by treating the isolated N-methyl transferase gene DNA fragment with NcoI and EcoRI was inserted into a pET23d vector. Then, the above PCR product was inserted into the NcoI site of this pET23d vector to construct an N-methyl transferase expression plasmid. This plasmid was transformed to Escherichia coli BL21 (DE3). After the obtained Escherichia coli was cultured at 37° C. for 2 hours, IPTG was added thereto so as to be 0.3 mM in final concentration, and 3-hour culture was further carried out at 30° C. After culturing had been completed, cells were collected and the cells from 3 ml culture solution were subjected to supersonic treatment for 1 minute with interval in 0.2 ml 10 mM Tris-hydrochloric acid buffer solution (pH 7.5), 0.1 M NaCl, 1 mM EDTA-Na2. Then, centrifugation was carried out at 14,000 rpm for 10 minutes, and the obtained supernatant was employed as an enzyme solution.
The reaction solution for N-methyl transferase measurement was prepared as follows. […] Reaction was carried out at 27° C. for 10 minutes, the obtained ^14C-caffeine was extracted by adding 1 ml chloroform thereto and the radiation activity of a chloroform layer was measured. As a control, xanthosine was added to the reaction solution instead of paraxanthine or paraxanthine was removed.

Substrate in data set [3]: Cn1c(=O)[nH]c2ncn(C)c2c1=O
Kind of data set: purified protein, by the assay type. The note with it: other: substrate of the N-methyl transferase; pH 8.5; 27.0 °C.

For the molecule `C[S+](CC[C@H](N)C(=O)[O-])C[C@H]1O[C@@H](n2cnc3c(N)ncnc32)[C@H](O)[C@@H]1O` (some centres unmarked) [SAM, S-adenosyl methionine], the Km at N-methyl transferase [1] (substrate of the N-methyl transferase) is 21 µM. On to `Cn1cnc2c1c(=O)[nH]c(=O)n2C` [theobromine], for which the “production of methylated product from the added substrate” value (from here on “production of methylated product”) on N-methyl transferase [2] is recorded as “production of caffeine was observed”. `Cn1c(=O)[nH]c2ncn(C)c2c1=O` [paraxanthine] gave a caffeine produced at N-methyl transferase [2] (0.2 mM substrate, 4 μM S-adenosyl methionine, 10 μl enzyme solution, pH 8.5, 27° C., 10 minutes) of 1.56 pmol. Turning to `Cn1cnc2[nH]c(=O)[nH]c(=O)c21` [7-methyl xanthine], at N-methyl transferase [2], the “production of methylated product” value is “production of theobromine was observed”.

Turning to `O=c1[nH]c(=O)c2ncn([C@@H]3O[C@H](CO)[C@@H](O)[C@H]3O)c2[nH]1` [xanthosine], on N-methyl transferase [2], the “production of methylated product” value is on record as “caffeine was produced only when paraxanthine was added”. For the molecule `Nc1ncnc2c1ncn2[C@@H]1O[C@H](CSCC[C@H](N)C(=O)O)[C@@H](O)[C@H]1O` [SAH, S-adenosyl homocysteine], the Inhibitor entry on N-methyl transferase [1] (inhibitor of the N-methyl transferase) was “Inhibitor”.

B1: N-methyl transferase: polypeptide of SEQ ID NO: 1 with 7-methyl xanthine N3, theobromine N1 and paraxanthine N3 methyl transferase activities (protein)
chain: FMNRGEGESSYAQNSSFTQQVASMAQPALENAVETLFSRDFHLQALNAADLGCAAGPNTFAVISTIKRMMEKKCRELNCQTLELQVYLNDLFGNDFNTLFKGLSSEVIGNKCEEVPCYVMGVPGSFHGRLFPRNSLHLVHSSYSVHWLTQAPKGLTSREGLALNKGKIYISKTSPPVVREAYLSQFHEDFTMFLNARSQEVVPNGCMVLILRGRQCSDPSDMQSCFTWELLAMAIAELVSQGLIDEDKLDTFNIPSYFASLEEVKDIVERDGSFTIDHIEGFDLDSVEMQENDKWVRGEKFTKVVRAFTEPIISNQFGPEIMDKLYDKFTHIVVSDLEAKLPKTTSIILVLSKIDG
For B1, in the data set with N-methyl transferase [1], the “Optimum pH” value is 8.5.

B2: N-methyl transferase (Camellia sinensis) (protein)
chain: MELATAGKVNEVLFMNRGEGESSYAQNSSFTQQVASMAQPALENAVETLFSRDFHLQALNAADLGCAAGPNTFAVISTIKRMMEKKCRELNCQTLELQVYLNDLFGNDFNTLFKGLSSEVIGNKCEEVPCYVMGVPGSFHGRLFPRNSLHLVHSSYSVHWLTQAPKGLTSREGLALNKGKIYISKTSPPVVREAYLSQFHEDFTMFLNARSQEVVPNGCMVLILRGRQCSDPSDMQSCFTWELLAMAIAELVSQGLIDEDKLDTFNIPSYFASLEEVKDIVERDGSFTIDHIEGFDLDSVEMQENDKWVRGEKFTKVVRAFTEPIISNQFGPEIMDKLYDKFTHIVVSDLEAKLPKTTSIILVLSKIDG
With B2, the Michaelis constant (Km) in data set [3] was 24 µM.

What is called Km is the substrate concentration at which the rate is half of its maximum.
